Values quoted from earlier work in US20200129499A1, “COMBINATION OF TASQUINIMOD OR A PHARMACEUTICALLY ACCEPTABLE SALT THEREOF AND A PD-1 AND/OR PD-L1 INHIBITOR, FOR USE AS A MEDICAMENT” (ACTIVE BIOTECH AB, priority 2015, published 2020).

System: metastatic bladder cancer
Settings: phase 1a study, cited from earlier work

atezolizumab: anti-PD-L1 human IgG1 antibody (Roche)
people alive at 1 year (people with the highest levels of PD-L1 expression): 57%
Complete responses (CRs) (metastatic bladder cancer): 20%
